According to patent US20230295119A1, “SUBSTITUTED PYRIDINES FOR THE TREATMENT OF INFLAMMATORY DISEASES” (GOSSAMER BIO SERVICES, INC., priority 2020, published 2023):

What follows are compounds tested against human JAK1 (Homo sapiens (Human), UniProt P23458) (assay: JAK1 TR-FRET kinase assay). Settings: TR-FRET, JAK1 2.5 nM.
Format: biochemical

human JAK1, sequence (P23458 whole entry): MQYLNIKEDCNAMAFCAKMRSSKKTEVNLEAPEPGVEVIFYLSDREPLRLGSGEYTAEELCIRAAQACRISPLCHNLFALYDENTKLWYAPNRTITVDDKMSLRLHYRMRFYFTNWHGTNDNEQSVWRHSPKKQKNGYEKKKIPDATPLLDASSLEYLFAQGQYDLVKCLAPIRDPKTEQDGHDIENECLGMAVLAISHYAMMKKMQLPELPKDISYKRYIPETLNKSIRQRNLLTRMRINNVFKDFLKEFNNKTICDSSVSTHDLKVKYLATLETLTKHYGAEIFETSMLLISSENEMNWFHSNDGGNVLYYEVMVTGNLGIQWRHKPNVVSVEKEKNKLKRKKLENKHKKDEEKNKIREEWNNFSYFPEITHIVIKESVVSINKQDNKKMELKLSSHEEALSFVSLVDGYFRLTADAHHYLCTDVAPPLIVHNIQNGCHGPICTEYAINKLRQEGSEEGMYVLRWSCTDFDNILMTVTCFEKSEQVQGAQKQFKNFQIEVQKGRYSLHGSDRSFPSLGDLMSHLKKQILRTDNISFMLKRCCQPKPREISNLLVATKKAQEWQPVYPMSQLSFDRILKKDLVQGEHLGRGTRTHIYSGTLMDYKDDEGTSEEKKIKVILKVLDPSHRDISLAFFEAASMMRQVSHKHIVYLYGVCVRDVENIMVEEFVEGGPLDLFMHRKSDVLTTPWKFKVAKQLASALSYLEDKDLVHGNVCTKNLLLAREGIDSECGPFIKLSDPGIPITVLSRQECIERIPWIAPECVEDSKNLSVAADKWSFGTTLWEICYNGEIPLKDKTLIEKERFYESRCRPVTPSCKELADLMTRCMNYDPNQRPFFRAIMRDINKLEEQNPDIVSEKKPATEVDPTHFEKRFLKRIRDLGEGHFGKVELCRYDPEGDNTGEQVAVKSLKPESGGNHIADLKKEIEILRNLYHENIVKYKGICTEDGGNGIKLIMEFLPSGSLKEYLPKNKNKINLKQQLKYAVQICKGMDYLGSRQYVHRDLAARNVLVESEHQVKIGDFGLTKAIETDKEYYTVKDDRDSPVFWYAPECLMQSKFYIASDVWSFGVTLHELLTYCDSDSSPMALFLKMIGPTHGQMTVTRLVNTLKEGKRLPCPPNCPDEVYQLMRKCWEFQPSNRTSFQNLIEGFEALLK

IC50	SMILES
≥ 0.5 µM	CCC(=O)c1cnc(Nc2cnc(OCCn3cnc(C)c3)cn2)cc1Nc1cccc(-c2ncn(C)n2)c1OC [Compound 18HHH]
≥ 0.5 µM	CCC(=O)c1cnc(Nc2ccnc(OCCCN(C)C)n2)cc1Nc1cccc(-c2ncn(C)n2)c1OC [Compound 18HH]
≥ 0.5 µM	CCC(=O)c1cnc(Nc2ccc(OC(CO)CO)cn2)cc1Nc1cccc(-c2ncn(C)n2)c1OC [Compound 18H]
≥ 0.5 µM	CCC(=O)c1cnc(Nc2cnc(OCCn3ccnc3C)cn2)cc1Nc1cccc(-c2ncn(C)n2)c1OC [Compound 18III]
≥ 0.5 µM	CCC(=O)c1cnc(Nc2ccnc(OC3CCN(C)CC3)n2)cc1Nc1cccc(-c2ncn(C)n2)c1OC [Compound 18II]
≥ 0.5 µM	COc1c(Nc2cc(Nc3ccc(OC[C@@H](O)CO)cn3)ncc2C(=O)C2CC2)cccc1-c1ncn(C)n1 [Compound 18I]
≥ 0.5 µM	CCC(=O)c1cnc(Nc2cnc(O[C@@H]3CCN(C)C3)c(C)n2)cc1Nc1cccc(-c2ncn(C)n2)c1OC [Compound 18JJJ]
≥ 0.5 µM	CCC(=O)c1cnc(Nc2ccnc(OC3CN(C)C3)n2)cc1Nc1cccc(-c2ncn(C)n2)c1OC [Compound 18JJ]
≥ 0.5 µM	COc1c(Nc2cc(Nc3ccc(OC[C@H](O)CO)cn3)ncc2C(=O)C2CC2)cccc1-c1ncn(C)n1 [Compound 18J]
≥ 0.5 µM	CCC(=O)c1cnc(Nc2cnc(O[C@@H]3CCN(CC(F)F)C3)cn2)cc1Nc1cccc(-c2ncn(C)n2)c1OC [Compound 18KKK]
≥ 0.5 µM	CCC(=O)c1cnc(Nc2ccnc(O[C@H]3CCN(C)C3)n2)cc1Nc1cccc(-c2ncn(C)n2)c1OC [Compound 18KK]
≥ 0.5 µM	COc1c(Nc2cc(Nc3ccc(OC(CO)CO)cn3)ncc2C(=O)C2CC2)cccc1-c1ncn(C)n1 [Compound 18K]
≥ 0.5 µM	CCC(=O)c1cnc(Nc2cnc(O[C@@H]3CCN(CC(F)(F)F)C3)cn2)cc1Nc1cccc(-c2ncn(C)n2)c1OC [Compound 18LLL]
≥ 0.5 µM	CCC(=O)c1cnc(Nc2ccnc(O[C@@H]3CCN(C)C3)n2)cc1Nc1cccc(-c2ncn(C)n2)c1OC [Compound 18LL]
≥ 0.5 µM	CCC(=O)c1cnc(Nc2ccc(OC(C)(C)C(=O)O)c(C)n2)cc1Nc1cccc(-c2ncn(C)n2)c1OC [Compound 18L]
≥ 0.5 µM	CCC(=O)c1cnc(Nc2cnc(O[C@@H]3C[C@H](C)N(C)C3)cn2)cc1Nc1cccc(-c2ncn(C)n2)c1OC [Compound 18MMM]
≥ 0.5 µM	CCC(=O)c1cnc(Nc2cnc(OCCN)cn2)cc1Nc1cccc(-c2ncn(C)n2)c1OC [Compound 18MM]

What follows are compounds tested against TYK2 JH2 domain (Homo sapiens (Human), UniProt P29597) (assay: TYK2 JH2 NanoBRET assay). Settings: Table 20, read-out: TYK2 IC50.
TYK2 JH2 domain, sequence (P29597 589-875): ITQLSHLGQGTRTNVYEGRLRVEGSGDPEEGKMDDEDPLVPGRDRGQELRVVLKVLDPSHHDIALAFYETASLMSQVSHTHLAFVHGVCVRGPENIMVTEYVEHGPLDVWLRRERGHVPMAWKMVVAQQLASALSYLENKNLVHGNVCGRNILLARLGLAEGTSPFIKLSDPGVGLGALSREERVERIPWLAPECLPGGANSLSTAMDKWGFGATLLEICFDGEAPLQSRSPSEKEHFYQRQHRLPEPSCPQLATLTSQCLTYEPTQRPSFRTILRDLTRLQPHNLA
Format: binding
Outline: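 HEK293T cells transiently expressing NanoLuc-TYK2 JH2 fusion, incubated 2 h with compound and NanoBRET K10 tracer (0.5 µM final). Target engagement read as acceptor/donor BRET ratio after Nano-Glo substrate plus extracellular NanoLuc inhibitor.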

IC50	SMILES
0.005 to 0.05 µM	CCC(=O)c1cnc(Nc2cnc(OCCn3cnc(C)c3)cn2)cc1Nc1cccc(-c2ncn(C)n2)c1OC [Compound 18HHH]
< 0.005 µM	CCC(=O)c1cnc(Nc2ccnc(OCCCN(C)C)n2)cc1Nc1cccc(-c2ncn(C)n2)c1OC [Compound 18HH]
0.005 to 0.05 µM	CCC(=O)c1cnc(Nc2ccc(OC(CO)CO)cn2)cc1Nc1cccc(-c2ncn(C)n2)c1OC [Compound 18H]
0.005 to 0.05 µM	CCC(=O)c1cnc(Nc2cnc(OCCn3ccnc3C)cn2)cc1Nc1cccc(-c2ncn(C)n2)c1OC [Compound 18III]
0.005 to 0.05 µM	CCC(=O)c1cnc(Nc2ccnc(OC3CCN(C)CC3)n2)cc1Nc1cccc(-c2ncn(C)n2)c1OC [Compound 18II]
0.005 to 0.05 µM	COc1c(Nc2cc(Nc3ccc(OC[C@@H](O)CO)cn3)ncc2C(=O)C2CC2)cccc1-c1ncn(C)n1 [Compound 18I]
0.005 to 0.05 µM	CCC(=O)c1cnc(Nc2cnc(O[C@@H]3CCN(C)C3)c(C)n2)cc1Nc1cccc(-c2ncn(C)n2)c1OC [Compound 18JJJ]
0.005 to 0.05 µM	CCC(=O)c1cnc(Nc2ccnc(OC3CN(C)C3)n2)cc1Nc1cccc(-c2ncn(C)n2)c1OC [Compound 18JJ]
0.005 to 0.05 µM	COc1c(Nc2cc(Nc3ccc(OC[C@H](O)CO)cn3)ncc2C(=O)C2CC2)cccc1-c1ncn(C)n1 [Compound 18J]
0.005 to 0.05 µM	CCC(=O)c1cnc(Nc2cnc(O[C@@H]3CCN(CC(F)F)C3)cn2)cc1Nc1cccc(-c2ncn(C)n2)c1OC [Compound 18KKK]
0.005 to 0.05 µM	CCC(=O)c1cnc(Nc2ccnc(O[C@H]3CCN(C)C3)n2)cc1Nc1cccc(-c2ncn(C)n2)c1OC [Compound 18KK]
0.005 to 0.05 µM	COc1c(Nc2cc(Nc3ccc(OC(CO)CO)cn3)ncc2C(=O)C2CC2)cccc1-c1ncn(C)n1 [Compound 18K]
0.005 to 0.05 µM	CCC(=O)c1cnc(Nc2cnc(O[C@@H]3CCN(CC(F)(F)F)C3)cn2)cc1Nc1cccc(-c2ncn(C)n2)c1OC [Compound 18LLL]
0.005 to 0.05 µM	CCC(=O)c1cnc(Nc2ccnc(O[C@@H]3CCN(C)C3)n2)cc1Nc1cccc(-c2ncn(C)n2)c1OC [Compound 18LL]
≥ 0.5 µM	CCC(=O)c1cnc(Nc2ccc(OC(C)(C)C(=O)O)c(C)n2)cc1Nc1cccc(-c2ncn(C)n2)c1OC [Compound 18L]
0.005 to 0.05 µM	CCC(=O)c1cnc(Nc2cnc(O[C@@H]3C[C@H](C)N(C)C3)cn2)cc1Nc1cccc(-c2ncn(C)n2)c1OC [Compound 18MMM]
< 0.005 µM	CCC(=O)c1cnc(Nc2cnc(OCCN)cn2)cc1Nc1cccc(-c2ncn(C)n2)c1OC [Compound 18MM]

Each compound was assayed against human JAK2 (Homo sapiens (Human), UniProt O60674) (assay: JAK2 TR-FRET kinase assay). Settings: JAK2 0.025 nM.
human JAK2, sequence (O60674 whole entry): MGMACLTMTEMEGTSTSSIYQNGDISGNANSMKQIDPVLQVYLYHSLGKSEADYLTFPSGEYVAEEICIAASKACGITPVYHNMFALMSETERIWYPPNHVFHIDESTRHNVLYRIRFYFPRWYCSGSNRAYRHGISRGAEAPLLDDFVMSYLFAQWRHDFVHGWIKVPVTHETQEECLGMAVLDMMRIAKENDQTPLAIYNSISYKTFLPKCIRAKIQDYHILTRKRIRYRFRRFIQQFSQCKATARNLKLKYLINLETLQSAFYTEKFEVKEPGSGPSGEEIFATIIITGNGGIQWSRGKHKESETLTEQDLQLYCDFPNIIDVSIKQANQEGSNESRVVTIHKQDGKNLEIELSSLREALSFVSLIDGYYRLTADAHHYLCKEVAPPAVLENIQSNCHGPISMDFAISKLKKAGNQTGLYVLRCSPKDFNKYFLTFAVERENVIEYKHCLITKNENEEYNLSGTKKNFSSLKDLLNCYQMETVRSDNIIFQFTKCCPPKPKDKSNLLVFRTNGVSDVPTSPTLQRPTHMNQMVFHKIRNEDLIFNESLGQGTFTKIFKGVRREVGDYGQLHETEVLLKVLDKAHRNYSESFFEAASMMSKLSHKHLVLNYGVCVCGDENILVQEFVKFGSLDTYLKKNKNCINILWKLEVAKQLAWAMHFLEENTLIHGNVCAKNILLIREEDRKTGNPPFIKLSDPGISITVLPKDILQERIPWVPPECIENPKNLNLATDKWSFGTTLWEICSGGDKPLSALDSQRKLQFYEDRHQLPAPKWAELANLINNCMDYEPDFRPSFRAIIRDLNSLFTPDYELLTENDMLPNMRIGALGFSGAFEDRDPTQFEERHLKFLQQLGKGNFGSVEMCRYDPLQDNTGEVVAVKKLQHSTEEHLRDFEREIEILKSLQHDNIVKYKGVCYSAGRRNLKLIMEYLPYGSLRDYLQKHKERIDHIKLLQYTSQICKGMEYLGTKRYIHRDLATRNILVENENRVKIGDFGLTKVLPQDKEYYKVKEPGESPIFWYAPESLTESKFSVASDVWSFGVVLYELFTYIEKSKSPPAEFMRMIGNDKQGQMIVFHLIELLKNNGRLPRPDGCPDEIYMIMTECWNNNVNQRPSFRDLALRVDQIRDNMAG
Format: biochemical

IC50	SMILES
≥ 0.5 µM	CCC(=O)c1cnc(Nc2cnc(OCCn3cnc(C)c3)cn2)cc1Nc1cccc(-c2ncn(C)n2)c1OC [Compound 18HHH]
≥ 0.5 µM	CCC(=O)c1cnc(Nc2ccnc(OCCCN(C)C)n2)cc1Nc1cccc(-c2ncn(C)n2)c1OC [Compound 18HH]
≥ 0.5 µM	CCC(=O)c1cnc(Nc2ccc(OC(CO)CO)cn2)cc1Nc1cccc(-c2ncn(C)n2)c1OC [Compound 18H]
≥ 0.5 µM	CCC(=O)c1cnc(Nc2cnc(OCCn3ccnc3C)cn2)cc1Nc1cccc(-c2ncn(C)n2)c1OC [Compound 18III]
≥ 0.5 µM	CCC(=O)c1cnc(Nc2ccnc(OC3CCN(C)CC3)n2)cc1Nc1cccc(-c2ncn(C)n2)c1OC [Compound 18II]
≥ 0.5 µM	COc1c(Nc2cc(Nc3ccc(OC[C@@H](O)CO)cn3)ncc2C(=O)C2CC2)cccc1-c1ncn(C)n1 [Compound 18I]
≥ 0.5 µM	CCC(=O)c1cnc(Nc2cnc(O[C@@H]3CCN(C)C3)c(C)n2)cc1Nc1cccc(-c2ncn(C)n2)c1OC [Compound 18JJJ]
≥ 0.5 µM	CCC(=O)c1cnc(Nc2ccnc(OC3CN(C)C3)n2)cc1Nc1cccc(-c2ncn(C)n2)c1OC [Compound 18JJ]
≥ 0.5 µM	COc1c(Nc2cc(Nc3ccc(OC[C@H](O)CO)cn3)ncc2C(=O)C2CC2)cccc1-c1ncn(C)n1 [Compound 18J]
≥ 0.5 µM	CCC(=O)c1cnc(Nc2cnc(O[C@@H]3CCN(CC(F)F)C3)cn2)cc1Nc1cccc(-c2ncn(C)n2)c1OC [Compound 18KKK]
≥ 0.5 µM	CCC(=O)c1cnc(Nc2ccnc(O[C@H]3CCN(C)C3)n2)cc1Nc1cccc(-c2ncn(C)n2)c1OC [Compound 18KK]
≥ 0.5 µM	COc1c(Nc2cc(Nc3ccc(OC(CO)CO)cn3)ncc2C(=O)C2CC2)cccc1-c1ncn(C)n1 [Compound 18K]
≥ 0.5 µM	CCC(=O)c1cnc(Nc2cnc(O[C@@H]3CCN(CC(F)(F)F)C3)cn2)cc1Nc1cccc(-c2ncn(C)n2)c1OC [Compound 18LLL]
≥ 0.5 µM	CCC(=O)c1cnc(Nc2ccnc(O[C@@H]3CCN(C)C3)n2)cc1Nc1cccc(-c2ncn(C)n2)c1OC [Compound 18LL]
0.05 to 0.5 µM	CCC(=O)c1cnc(Nc2ccc(OC(C)(C)C(=O)O)c(C)n2)cc1Nc1cccc(-c2ncn(C)n2)c1OC [Compound 18L]
≥ 0.5 µM	CCC(=O)c1cnc(Nc2cnc(O[C@@H]3C[C@H](C)N(C)C3)cn2)cc1Nc1cccc(-c2ncn(C)n2)c1OC [Compound 18MMM]
≥ 0.5 µM	CCC(=O)c1cnc(Nc2cnc(OCCN)cn2)cc1Nc1cccc(-c2ncn(C)n2)c1OC [Compound 18MM]

These compounds were tested against human JAK3 (Homo sapiens (Human), UniProt P52333) (assay: JAK3 TR-FRET kinase assay). Settings: JAK3 0.0125 nM.
human JAK3, sequence (P52333 whole entry): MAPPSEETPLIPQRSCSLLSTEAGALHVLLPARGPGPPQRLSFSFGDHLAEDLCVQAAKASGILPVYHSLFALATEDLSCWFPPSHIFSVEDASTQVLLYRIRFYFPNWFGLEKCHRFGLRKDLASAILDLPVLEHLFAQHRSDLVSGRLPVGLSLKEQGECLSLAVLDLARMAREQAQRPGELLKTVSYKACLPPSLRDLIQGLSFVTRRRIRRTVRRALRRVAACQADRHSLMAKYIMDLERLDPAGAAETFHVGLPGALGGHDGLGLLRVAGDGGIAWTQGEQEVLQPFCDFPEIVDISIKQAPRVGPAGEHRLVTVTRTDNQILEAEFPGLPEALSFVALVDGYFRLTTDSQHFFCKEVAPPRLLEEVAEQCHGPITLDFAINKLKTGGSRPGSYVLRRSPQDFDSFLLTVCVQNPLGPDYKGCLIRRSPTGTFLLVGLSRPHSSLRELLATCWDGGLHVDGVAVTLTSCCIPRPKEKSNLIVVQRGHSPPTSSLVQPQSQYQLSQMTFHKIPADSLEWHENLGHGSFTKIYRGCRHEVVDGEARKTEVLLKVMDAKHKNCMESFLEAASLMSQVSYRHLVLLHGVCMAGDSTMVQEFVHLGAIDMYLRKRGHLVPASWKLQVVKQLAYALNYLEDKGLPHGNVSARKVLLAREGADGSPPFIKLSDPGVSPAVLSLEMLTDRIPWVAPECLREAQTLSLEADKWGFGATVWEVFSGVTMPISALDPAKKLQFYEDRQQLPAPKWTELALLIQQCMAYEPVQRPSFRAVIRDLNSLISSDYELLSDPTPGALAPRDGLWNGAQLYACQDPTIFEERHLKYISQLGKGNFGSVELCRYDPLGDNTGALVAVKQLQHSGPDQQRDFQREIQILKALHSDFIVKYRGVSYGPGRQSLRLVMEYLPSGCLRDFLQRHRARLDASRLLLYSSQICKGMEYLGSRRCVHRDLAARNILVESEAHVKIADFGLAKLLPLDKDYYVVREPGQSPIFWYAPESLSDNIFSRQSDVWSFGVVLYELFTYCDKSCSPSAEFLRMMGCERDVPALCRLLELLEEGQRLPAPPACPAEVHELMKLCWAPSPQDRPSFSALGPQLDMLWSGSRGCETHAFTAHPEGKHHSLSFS
Format: biochemical

IC50	SMILES
≥ 0.5 µM	CCC(=O)c1cnc(Nc2cnc(OCCn3cnc(C)c3)cn2)cc1Nc1cccc(-c2ncn(C)n2)c1OC [Compound 18HHH]
≥ 0.5 µM	CCC(=O)c1cnc(Nc2ccnc(OCCCN(C)C)n2)cc1Nc1cccc(-c2ncn(C)n2)c1OC [Compound 18HH]
≥ 0.5 µM	CCC(=O)c1cnc(Nc2ccc(OC(CO)CO)cn2)cc1Nc1cccc(-c2ncn(C)n2)c1OC [Compound 18H]
≥ 0.5 µM	CCC(=O)c1cnc(Nc2cnc(OCCn3ccnc3C)cn2)cc1Nc1cccc(-c2ncn(C)n2)c1OC [Compound 18III]
≥ 0.5 µM	CCC(=O)c1cnc(Nc2ccnc(OC3CCN(C)CC3)n2)cc1Nc1cccc(-c2ncn(C)n2)c1OC [Compound 18II]
≥ 0.5 µM	COc1c(Nc2cc(Nc3ccc(OC[C@@H](O)CO)cn3)ncc2C(=O)C2CC2)cccc1-c1ncn(C)n1 [Compound 18I]
≥ 0.5 µM	CCC(=O)c1cnc(Nc2cnc(O[C@@H]3CCN(C)C3)c(C)n2)cc1Nc1cccc(-c2ncn(C)n2)c1OC [Compound 18JJJ]
≥ 0.5 µM	CCC(=O)c1cnc(Nc2ccnc(OC3CN(C)C3)n2)cc1Nc1cccc(-c2ncn(C)n2)c1OC [Compound 18JJ]
≥ 0.5 µM	COc1c(Nc2cc(Nc3ccc(OC[C@H](O)CO)cn3)ncc2C(=O)C2CC2)cccc1-c1ncn(C)n1 [Compound 18J]
≥ 0.5 µM	CCC(=O)c1cnc(Nc2cnc(O[C@@H]3CCN(CC(F)F)C3)cn2)cc1Nc1cccc(-c2ncn(C)n2)c1OC [Compound 18KKK]
≥ 0.5 µM	CCC(=O)c1cnc(Nc2ccnc(O[C@H]3CCN(C)C3)n2)cc1Nc1cccc(-c2ncn(C)n2)c1OC [Compound 18KK]
≥ 0.5 µM	COc1c(Nc2cc(Nc3ccc(OC(CO)CO)cn3)ncc2C(=O)C2CC2)cccc1-c1ncn(C)n1 [Compound 18K]
≥ 0.5 µM	CCC(=O)c1cnc(Nc2cnc(O[C@@H]3CCN(CC(F)(F)F)C3)cn2)cc1Nc1cccc(-c2ncn(C)n2)c1OC [Compound 18LLL]
≥ 0.5 µM	CCC(=O)c1cnc(Nc2ccnc(O[C@@H]3CCN(C)C3)n2)cc1Nc1cccc(-c2ncn(C)n2)c1OC [Compound 18LL]
0.05 to 0.5 µM	CCC(=O)c1cnc(Nc2ccc(OC(C)(C)C(=O)O)c(C)n2)cc1Nc1cccc(-c2ncn(C)n2)c1OC [Compound 18L]
≥ 0.5 µM	CCC(=O)c1cnc(Nc2cnc(O[C@@H]3C[C@H](C)N(C)C3)cn2)cc1Nc1cccc(-c2ncn(C)n2)c1OC [Compound 18MMM]
≥ 0.5 µM	CCC(=O)c1cnc(Nc2cnc(OCCN)cn2)cc1Nc1cccc(-c2ncn(C)n2)c1OC [Compound 18MM]
